The values below are quoted from earlier work in patent US20040076682A1, “Novel ophthalmic compositions” (priority 2001, published 2004).

The structures appear in SMILES notation. ≈ marks a conversion by molar mass, not a printed value.

The subject of this data set is Streptococcus sp. As to conditions: Streptococcus sp clinical isolate of ocular infections.

Turning to `CCn1cc(C(=O)O)c(=O)c2cc(F)c(N3CCNCC3)cc21` [norfloxacin], the MIC80 was 12.5 µg/mL (≈ 39.1 µM).
